According to patent US11985994B2, “Sweetener and flavor compositions, methods of making and methods of use thereof” (EPC Natural Products Co., Ltd., priority 2018, dated 2024):

Key:
[1] = Degree of kokumi of Tamarind gum solution (Example 189); set-up: species or system human
Procedure: Tamarind gum was added to pure water to prepare several Tamarind gum solutions with a concentration gradient as standard solutions for judging the degree of kokumi of the Tamarind gum solutions.
A Tamarind gum solution was prepared at a concentration of 400 ppm. Different amounts of MRP, S-MRP or TS-MRP were added to the solution such that the concentration of MRP, S-MRP or TS-MRP in the solution was 50 ppm, 75 ppm, 100 ppm, 125 ppm or 150 ppm.
(§1) Method: For evaluation of the degree of kokumi, the sample solutions (described above) were tested by a panel of four people. The panel was asked to taste the sample solutions and compare them to standard solutions (described above) to judge to which standard solution the degree of kokumi of sample solution is similar 1 trained taster tasted independently the samples first. The tester was allowed to re-taste, and then made judgment. Afterwards, another 3 tasters tasted and the judgments were discussed openly to find a suitable description. In the case that more than 1 taster disagreed with the result, the tasting was repeated.

[2] = Degree of kokumi of gellan gum solution (Example 188); set-up: species or system human
Procedure: Gellan gum was added to pure water to prepare several gellan gum solutions with a concentration gradient as standard solutions for judging the degree of kokumi of the gellan gum solutions.
A gellan gum solution was prepared at a concentration of 400 ppm. Different amounts of MRP, S-MRP or TS-MRP were added to the solution such that the concentration of MRP, S-MRP or TS-MRP in the solution was 50 ppm, 75 ppm, 100 ppm, 125 ppm or 150 ppm.
as §1

[3] = Degree of kokumi of carrageenan solution (Example 187); set-up: species or system human
Procedure: Carrageenan was added to pure water to prepare several carrageenan solutions with a concentration gradient as standard solutions for judging the degree of kokumi of the carrageenan solutions.
A carrageenan solution was prepared at a concentration of 400 ppm. Different amounts of MRP, S-MRP or TS-MRP were added to the solution such that the concentration of MRP, S-MRP or TS-MRP in the solution was 50 ppm, 75 ppm, 100 ppm, 125 ppm or 150 ppm.
as §1, with “judge” for “judge to”, “similar to.” for “similar”, “description in” for “description. In”

[4] = Assay to test DPPH radical-scavenging activity (Example 65); assay type: physicochemical; conditions: combinations of amino acids and Reb-A, 100 °C; less pronounced than glucose or xylose
Procedure: 1 mg 1,1-Diphenyl-2-picrylhydrazyl radical (DPPH)/ml ethanol, dilution to assay concentration were prepared in ethanol (40 μg/mL); Calibration samples were prepared with Ascorbic acid in a concentration of 0-10 μg/mL, as a negative control sample, water was used.
Samples in aqueous solution were used as such or diluted with water.
A 0.1 ml sample (or calibration standard) was mixed with 3.9 ml solution of DPPH (100 μMolar) and reacted while protected from light at room temperature for 30 min. Absorbance was determined at 517 nm against ethanol.
10 mM of amino acid and/or 10 mM sugar were dissolved in 10 ml 0.1 mM KH2PO4-buffer, pH=7.8.
The samples were kept at 100° C. in sealed glass vials (Pyrex 15 ml with screw caps) for 0 (before reaction), 2.5 or 5.0 hours. Thereafter the samples were transferred to an ice water bath and cooled down to room temperature. These samples were diluted 1:10 and used for the test assay for anti-oxidant potential.

Which “concentration above which taste like starch paste is clearly felt” value [1] does the source give for Tamarind gum here?
The value was “exceeds 1400 ppm”.

With gellan gum as the compound, how does the “concentration above which taste like starch paste is clearly felt” value [2] read?
Its value is “exceeds 1400 ppm”.

With carrageenan as the compound, how does the “concentration above which taste like starch paste is clearly felt” value [3] read?
Its value is “exceeds 1000 ppm”.

Which anti-oxidant properties [4] does the source give for C=C1C[C@@]23CC[C@H]4[C@@](C)(CCC[C@@]4(C)C(=O)O[C@@H]4O[C@H](CO)[C@@H](O)[C@H](O)[C@H]4O)[C@@H]2CC[C@]1(O[C@@H]1O[C@H](CO)[C@@H](O)[C@H](O[C@@H]2O[C@H](CO)[C@@H](O)[C@H](O)[C@H]2O)[C@H]1O[C@@H]1O[C@H](CO)[C@@H](O)[C@H](O)[C@H]1O)C3 [Reb-A, Rebaudioside A] here?
The anti-oxidant properties was “substantial anti-oxidant properties”.
